From paper PMC4214152 (Chemical science (Royal Society of Chemistry : 2010), 2011)

Legend:
[1] = tested on: AsPC-1 pancreatic carcinoma; test: Cell viability by MTT assay; assay type: cell-based; settings: AsPC-1, 100 μM, 24 h
[2] = tested on: NCI-H1975 lung carcinoma cells; test: Cell viability by MTT assay; assay type: cell-based; settings: NCI-H1975, 100 μM, 24 h
HFL-1 lung fibroblasts = settings: HFL-1, 100 μM, 24 h incubation
[3] = molecular target: purified human αIIbβ3 integrin receptor (Homo sapiens, UniProt P05106+P08514); assay type: binding
αvβ3 integrin receptor = αvβ3 integrin receptor (Homo sapiens, UniProt P05106+P06756); assay type: binding
αIIbβ3 integrin = αIIbβ3 integrin (Homo sapiens, UniProt P05106+P08514); test: Hyperpolarized 129Xe NMR binding assay
physchem = assay type: physicochemical
[4] = 50 μM with 16 μM αIIbβ3 integrin, Tris buffer, 30% glycerol, 0.1% Triton X-100

Compound | maximum toxicity [1] [%] | maximum toxicity [2] [%] | maximum toxicity (HFL-1 lung fibroblasts) [%] | weaker binding compared to c[RGDyK] peptide [3] | lower affinity compared to c[RGDyK] peptide alone (αvβ3 integrin receptor) | 129Xe NMR chemical shift of "bound" biosensor (αIIbβ3 integrin; [4]) [ppm] | 129Xe NMR chemical shift of "free" biosensor (αIIbβ3 integrin; [4]) [ppm] | 129Xe NMR chemical shift of biosensor alone (αIIbβ3 integrin; 100 μM, Tris buffer (1 mM, pH 7.2)) [ppm] | solubility (physchem) [µM]
C#CCOc1cc2c3cc1OCCOc1cc4c(cc1OC)Cc1cc5c(OC)cc1Cc1cc(c(OC)cc1C4)OCCOc1cc(c(cc1OCC#C)Cc1cc(c(OCc4cn(CCCC[C@@H]6NC(=O)[C@@H](Cc7ccc(O)cc7)NC(=O)[C@H](CC(=O)O)NC(=O)CNC(=O)[C@H](CCCNC(=N)N)NC6=O)nn4)cc1C3)OCCO5)C2 [Biosensor 3] | 61 | 57 | 40 | approximately 10 fold | approximately 4 fold |  |  |  | 
COc1cc2c3cc1OCCOc1cc4c(cc1OCc1cn(CCCC[C@@H]5NC(=O)[C@@H](Cc6ccc(O)cc6)NC(=O)[C@H](CC(=O)O)NC(=O)CNC(=O)[C@H](CCCNC(=N)N)NC5=O)nn1)Cc1cc5c(OCc6cn(CCC(=O)O)nn6)cc1Cc1cc(c(OCc6cn(CCC(=O)O)nn6)cc1C4)OCCOc1cc(c(cc1OC)Cc1cc(c(OC)cc1C3)OCCO5)C2 [Biosensor 5] |  |  |  |  |  | 71.2 | 67.1 | 65.8 | ≤ 250
